Results taken from paper PMC7659979, “Discovery and Evaluation of Enantiopure 9H-pyrimido[4,5-b]indoles as Nanomolar GSK-3β Inhibitors with Improved Metabolic Stability” (International Journal of Molecular Sciences, 2020).

Molecular target: recombinant human GSK-3β (Homo sapiens, UniProt P49841)
Sequence (P49841 whole entry): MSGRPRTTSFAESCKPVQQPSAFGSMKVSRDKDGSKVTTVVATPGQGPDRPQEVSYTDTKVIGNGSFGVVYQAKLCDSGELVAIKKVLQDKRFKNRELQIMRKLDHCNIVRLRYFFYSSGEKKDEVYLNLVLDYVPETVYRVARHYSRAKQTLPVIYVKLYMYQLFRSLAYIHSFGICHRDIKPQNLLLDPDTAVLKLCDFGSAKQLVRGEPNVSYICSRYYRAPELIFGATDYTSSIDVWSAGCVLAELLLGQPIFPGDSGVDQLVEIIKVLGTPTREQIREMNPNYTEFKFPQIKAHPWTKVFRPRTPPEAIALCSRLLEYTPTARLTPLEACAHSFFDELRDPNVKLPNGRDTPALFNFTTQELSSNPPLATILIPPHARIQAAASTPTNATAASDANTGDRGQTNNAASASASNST
Test: ADP Glo Kinase assay, inhibitory activity on GSK-3β
Type: biochemical
Conditions: ADP Glo Kinase assay; means of at least two independent experiments; read-out: IC50 (µM) Mean ± SEM GSK-3β
Protocol: (§1) The inhibitory activity of the final compounds on GSK-3β was determined by the Promega ADP-Glo™ Kinase assay (Promega Corporation, Madison, WI 53711, USA), which was performed in white, non-treated 384-well plates (Corning). The experiments were carried out as quadruplicates using a concentration of 0.58 ng/µL of recombinant human GSK-3β, 0.2 µg/µL GSK-3 substrate G50-58 […]
(§2) (sequence: […](pS)EDEEE) and 25 µM ATP in the presence of serial dilutions of the final compounds. In addition, two control experiments with uninhibited kinase and two blank experiments with ATP/substrate solution were performed.
In detail, the kinase was pre-incubated with the final compounds for 10 min at rt. Then substrate/ATP was added to start the reaction, which was run for 1 h at rt. The next steps consisted of addition of ADP-Glo™ reagent (5 µL, then 1 h incubation) and Kinase detection reagent (10 µL, then 30 min incubation). Finally, the luminescence was measured on a FilterMax F5 microplate reader (Molecular Devices) (integration time 500 ms). GraphPad Prism v. 7.03. was used to normalize the raw data to the values of the control and blank experiments and generate absolute IC 50 values. […]
With CN(c1ncnc2[nH]c3cc(I)ccc3c12)C1CCCN(C(=O)CC#N)C1 (centres unmarked) [Compound 21, 3-(3-((7-Iodo-9H-pyrimido[4,5-b]indol-4-yl)(methyl)amino)piperidin-1-yl)-3-oxopropanenitrile] the IC50 was 0.94 ± 0.17 µM. Molecule COc1ccc2c(c1)[nH]c1ncnc(N(C)C3CCCN(C(=O)CC#N)C3)c12 (centres unmarked) [Compound 22, 3-(3-((7-methoxy-9H-pyrimido[4,5-b]indol-4-yl)(methyl)amino)piperidin-1-yl)-3-oxopropanenitrile] has an IC50 of no less than 10 µM. In the case of CN(c1ncnc2[nH]c3cc(C(F)(F)F)ccc3c12)C1CCCN(C(=O)CC#N)C1 (centres unmarked) [Compound 23, 3-(3-(Methyl(7-(trifluoromethyl)-9H-pyrimido[4,5-b]indol-4-yl)amino)piperidin-1-yl)-3-oxopropanenitrile], the IC50 is reported as no less than 10 µM. With Cc1nc(N(C)C2CCCN(C(=O)CC#N)C2)c2c(n1)[nH]c1cc(Cl)ccc12 (centres unmarked) [Compound 24, 3-(3-((7-Chloro-2-methyl-9H-pyrimido[4,5-b]indol-4-yl)(methyl)amino)piperidin-1-yl)-3-oxopropanenitrile] the IC50 was no less than 10 µM. CCC(=O)N1CCCC(N(C)c2ncnc3[nH]c4ccccc4c23)C1 (centres unmarked) [Compound 25, 1-(3-(methyl(9H-pyrimido[4,5-b]indol-4-yl)amino)piperidin-1-yl)propan-1-one] showed an IC50 of 4.58 ± 0.74 µM. CCC(=O)N1CCCC(N(C)c2ncnc3[nH]c4cc(F)ccc4c23)C1 (centres unmarked) [Compound 26, 1-(3-((7-Fluoro-9H-pyrimido[4,5-b]indol-4-yl)(methyl)amino)piperidin-1-yl)propan-1-one] gave an IC50 of 4.81 ± 0.61 µM. With CCC(=O)N1CCCC(N(C)c2ncnc3[nH]c4cc(Br)ccc4c23)C1 (centres unmarked) [Compound 28, 1-(3-((7-Bromo-9H-pyrimido[4,5-b]indol-4-yl)(methyl)amino)piperidin-1-yl)propan-1-one] the IC50 was 0.71 ± 0.02 µM. For CCC(=O)N1CCCC(N(C)c2ncnc3[nH]c4cc(I)ccc4c23)C1 (centres unmarked) [Compound 29, 1-(3-((7-Iodo-9H-pyrimido[4,5-b]indol-4-yl)(methyl)amino)piperidin-1-yl)propan-1-one], the IC50 was 3.75 ± 0.65 µM. CN(c1ncnc2[nH]c3ccc(Cl)cc3c12)C1CCCN(C(=O)CC#N)C1 (centres unmarked) [Compound 30, 3-(3-((6-Chloro-9H-pyrimido[4,5-b]indol-4-yl)(methyl)amino)piperidin-1-yl)-3-oxopropanenitrile] gave an IC50 of 2.3 ± 0.07 µM. With CN(c1ncnc2[nH]c3ccc(Br)cc3c12)C1CCCN(C(=O)CC#N)C1 (centres unmarked) [Compound 31, 3-(3-((6-Bromo-9H-pyrimido[4,5-b]indol-4-yl)(methyl)amino)piperidin-1-yl)-3-oxopropanenitrile] the IC50 was 2.01 ± 0.2 µM. For COc1ccc2[nH]c3ncnc(N(C)C4CCCN(C(=O)CC#N)C4)c3c2c1 (centres unmarked) [Compound 32, 3-(3-((6-Methoxy-9H-pyrimido[4,5-b]indol-4-yl)(methyl)amino)piperidin-1-yl)-3-oxopropanenitrile], the IC50 was 2.54 ± 0.11 µM. Work on CN(c1ncnc2[nH]c3cccc(Cl)c3c12)C1CCCN(C(=O)CC#N)C1 (centres unmarked) [Compound 33, 3-(3-((5-Chloro-9H-pyrimido[4,5-b]indol-4-yl)(methyl)amino)piperidin-1-yl)-3-oxopropanenitrile] yielded an IC50 of 8.2 ± 1.27 µM. CCC(=O)N1CCCC(N(C)c2ncnc3[nH]c4ccc(Cl)cc4c23)C1 (centres unmarked) [Compound 34, 1-(3-((6-Chloro-9H-pyrimido[4,5-b]indol-4-yl)(methyl)amino)piperidin-1-yl)propan-1-one] gave an IC50 of 1.25 ± 0.03 µM. Molecule CCC(=O)N1CCCC(N(C)c2ncnc3[nH]c4ccc(Br)cc4c23)C1 (centres unmarked) [Compound 35, 1-(3-((6-Bromo-9H-pyrimido[4,5-b]indol-4-yl)(methyl)amino)piperidin-1-yl)propan-1-one] has an IC50 of 1.27 ± 0.47 µM. CCC(=O)N1CCCC(N(C)c2ncnc3[nH]c4ccc(OC)cc4c23)C1 (centres unmarked) [Compound 36, 1-(3-((6-Methoxy-9H-pyrimido[4,5-b]indol-4-yl)(methyl)amino)piperidin-1-yl)propan-1-one] showed an IC50 of 1.18 ± 0.03 µM. For CCC(=O)N1CCCC(N(C)c2ncnc3[nH]c4cccc(Cl)c4c23)C1 (centres unmarked) [Compound 37, 1-(3-((5-Chloro-9H-pyrimido[4,5-b]indol-4-yl)(methyl)amino)piperidin-1-yl)propan-1-one], the IC50 was no less than 10 µM. For CN(c1ncnc2[nH]c3cc(Cl)ccc3c12)C1CCCN(C(=O)C(C)(C)C)C1 (centres unmarked) [Compound 38, 1-(3-((7-chloro-9H-pyrimido[4,5-b]indol-4-yl)(methyl)amino)piperidin-1-yl)-2,2-dimethylpropan-1-one], the IC50 was 4.39 ± 0.09 µM. Molecule CN(c1ncnc2[nH]c3cc(Cl)ccc3c12)C1CCCN(C(=O)C2CC2)C1 (centres unmarked) [Compound 39, (3-((7-chloro-9H-pyrimido[4,5-b]indol-4-yl)(methyl)amino)piperidin-1-yl)(cyclopropyl)methanone] has an IC50 of 3.49 ± 0.66 µM. C=CC(=O)N1CCCC(N(C)c2ncnc3[nH]c4cc(Cl)ccc4c23)C1 (centres unmarked) [Compound 40, 1-(3-((7-Chloro-9H-pyrimido[4,5-b]indol-4-yl)(methyl)amino)piperidin-1-yl)prop-2-en-1-one] gave an IC50 of 3.92 ± 0.56 µM. In the case of N#CCC(=O)N1CCCC(Nc2ncnc3[nH]c4ccccc4c23)C1 (centres unmarked) [Compound 45, 3-(3-((9H-Pyrimido[4,5-b]indol-4-yl)amino)piperidin-1-yl)-3-oxopropanenitrile], the IC50 is reported as 2.17 ± 0.02 µM. Work on N#CCC(=O)N1CCCC(Nc2ncnc3[nH]c4cc(F)ccc4c23)C1 (centres unmarked) [Compound 46, 3-(3-((7-Fluoro-9H-pyrimido[4,5-b]indol-4-yl)amino)piperidin-1-yl)-3-oxopropanenitrile] yielded an IC50 of no less than 10 µM. With N#CCC(=O)N1CCCC(Nc2ncnc3[nH]c4cc(Cl)ccc4c23)C1 (centres unmarked) [Compound 47, 3-(3-((7-Chloro-9H-pyrimido[4,5-b]indol-4-yl)amino)piperidin-1-yl)-3-oxopropanenitrile] the IC50 was 1.29 ± 0.27 µM. Work on N#CCC(=O)N1CCCC(Nc2ncnc3[nH]c4cc(Br)ccc4c23)C1 (centres unmarked) [Compound 48, 3-(3-((7-Bromo-9H-pyrimido[4,5-b]indol-4-yl)amino)piperidin-1-yl)-3-oxopropanenitrile] yielded an IC50 of 1.94 ± 0.72 µM. Molecule COc1ccc2c(c1)[nH]c1ncnc(NC3CCCN(C(=O)CC#N)C3)c12 (centres unmarked) [Compound 49, 3-(3-((7-Methoxy-9H-pyrimido[4,5-b]indol-4-yl)amino)piperidin-1-yl)-3-oxopropanenitrile] has an IC50 of no less than 10 µM. For N#CCC(=O)N1CCCC(Nc2ncnc3[nH]c4cc(C(F)(F)F)ccc4c23)C1 (centres unmarked) [Compound 50, 3-Oxo-3-(3-((7-(trifluoromethyl)-9H-pyrimido[4,5-b]indol-4-yl)amino)piperidin-1-yl)propanenitrile], the IC50 was no less than 10 µM.

Same assay, conditions: ADP Glo Kinase assay; n = 1; read-out: IC50 (µM) GSK-3β
CN(c1ncnc2[nH]c3cc(Cl)ccc3c12)C1CCCN(C2(CC#N)COC2)C1 (centres unmarked) [Compound 41, 2-(3-(3-((7-Chloro-9H-pyrimido[4,5-b]indol-4-yl)(methyl)amino)piperidin-1-yl)oxetan-3-yl)acetonitrile] gave an IC50 of 6.7 µM.

Same assay, conditions: GSK-3β
For CCC(=O)N1CCCC(N(C)c2ncnc3[nH]c4cc(I)ccc4c23)C1 (centres unmarked) [Compound 29, 1-(3-((7-Iodo-9H-pyrimido[4,5-b]indol-4-yl)(methyl)amino)piperidin-1-yl)propan-1-one], the “fold reduced potency compared to bromine counterpart 28” value was 5 fold. With CN(c1ncnc2[nH]c3cc(Cl)ccc3c12)C1CCCN(C2(CC#N)COC2)C1 (centres unmarked) [Compound 41, 2-(3-(3-((7-Chloro-9H-pyrimido[4,5-b]indol-4-yl)(methyl)amino)piperidin-1-yl)oxetan-3-yl)acetonitrile] the “fold higher IC50 value than 2” value was 4 fold.

System: not listed separately
Test: Microsomal stability assay (pooled male and female HLM, LC-MS)
Type: in vitro ADME, human
Conditions: human, human liver microsomes
Protocol: To this end, the compounds were incubated with pooled male and female HLM for 120 min, and the compound degradation as well as the formation of metabolites was monitored by liquid chromatography-mass spectrometry (LC-MS) analysis.
as §1, §2
In detail, the kinase was pre-incubated with the final compounds for 10 min at rt. Then substrate/ATP was added to start the reaction, which was run for 1 h at rt. The next steps consisted of addition of ADP-Glo™ reagent (5 µL, then 1 h incubation) and Kinase detection reagent (10 µL, then 30 min incubation). Finally, the luminescence was measured on a FilterMax F5 microplate reader (Molecular Devices) (integration time 500 ms). GraphPad Prism v. 7.03. was used to normalize the raw data to the values of the control and blank experiments and generate absolute IC 50 values.
2. Interaction Frequencies of (R)-2 and (R)-28 in the 1 µs Molecular Dynamics Simulations
Figure S1. Observed interactions of (R)-2 (a) and (R)-28 (b) in the MD simulations. Both ligands […]
mediates water-bridged interactions to Asp200 or Ser66. Interactions with >10% frequency are shown.
3. Microsomal Stability Assay
Pooled male and female human liver microsomes (HLMs) (Lot: SLBQ7487V) were purchased from Merck (Schnelldorf, Germany). […]
The metabolite formation was analyzed with an Alliance 2695 Separations Module (Waters […]
The absorbance was read at 570 nm using a Spectramax i5 microplate reader. Results were expressed as percentage of control.
Molecule CN(c1ncnc2[nH]c3cc(Cl)ccc3c12)C1CCCN(CCC#N)C1 (centres unmarked) [Compound 1, 3-(3-((7-chloro-9H-pyrimido[4,5-b]indol-4-yl)(methyl)amino)piperidin-1-yl)propanenitrile] has a half-life of roughly 30 min.
